Numbered stars: 1 amine (or outer) side, 2 acyl side, 3 side chain; on linkers, the order of the positions; unused ones are H or OH. Bridge positions count the residues as written; N and C are the ends. Square brackets hold non-standard residues; d marks the D form. Peptide text beside a SMILES is read from it. * marks the point of attachment. ξ: configuration not given here. Orn(4R-OH,5R-OCH2CH2NMe3+) = C[N+](C)(C)CCO[C@@H](N[*:3])[C@H](O)C[C@H](N[*:1])C(=O)[*:2]; pTerphenylCO(4''-OnC5H11) = CCCCCOc1ccc(-c2ccc(-c3ccc(C(=O)*)cc3)cc2)cc1; hTyr(3S-OH,4S-OH) = N[C@H](C(=O)O)[C@H](O)[C@@H](O)c1ccc(O)cc1; X1 = C[C@H]1CN([*:1])C(C(=O)[*:2])C1O; Hyp = O=C(O)[C@@H]1C[C@@H](O)CN1; ξT = CC(O)C(N)C(=O)O

The values that follow come from patent publication US20240076347A1, “METHODS FOR PREVENTING FUNGAL INFECTIONS” (Cidara Therapeutics, Inc., priority 2016, published 2024).

Data set [1] relates to A. fumigatus (ATCC 13073). Put plainly: Disseminated infection of immune competent DBA/2 mice, prophylaxis, survival. In kind it is in vivo, Aspergillus fumigatus. The protocol: A. fumigatus (ATCC 13073) growth was taken from 96 hour potato dextrose agar (PDA) and re-suspended in 0.1% Tween 20. The culture was resuspended in 1 mL cold PBS (>1.0×10^8 CFU/mL, OD620 2.3-2.8). The culture was then diluted in PBS to final cellular densities of 1.0×10^7 CFU/mL. The actual colony counts were determined by plating dilutions on PDA plates to confirm inoculation concentration. The actual inoculum count was 1.30×10^7 CFU/mL.
Groups of 6 immune competent female DBA/2 mice weighing 18±2 g were used. On Day 0, animals were inoculated (0.1 mL/mouse) by intravenous (IV) injection into the tail vein with A. fumigatus (ATCC 13073), 1.30×10^6 CFU per mouse. CD101 at 3, 10 and 30 mg/kg as prophylaxis was administered subcutaneously (SC) once starting 5, 3 or 1 day before inoculation. In addition, CD101 at 3 mg/kg SC and the reference, amphotericin B, at 3 mg/kg by intraperitoneal (IP) injection were administered one hour after infection (See Table 2).
A 50 percent or more (≥50%) increase in the survival rate compared to the vehicle control group indicates significant anti-infective activity. The health observations including body weight, hunched posture, ruffled fur, immobility and hypothermia were recorded daily for 14 days.

Data set [2] is described as follows: Plasma protein binding by ultracentrifugation. As to conditions: mouse plasma; read-out: percent of bound CD101, mean (protein binding) (converted). It counts as in vitro ADME. The protocol: (§1) Concentrations in plasma ranging from 7 to 60 μg/mL were tested and resulting samples were analyzed by LC-MS/MS.
The subject of data set [3] is human plasma proteins. Kind of data set: Plasma protein binding by ultracentrifugation. In kind it is in vitro ADME. The protocol: as §1
For data set [4], the system named is C. parapsilosis. Kind of data set: Neutropenic murine disseminated candidiasis model, PK/PD target determination. It counts as in vivo, Candida parapsilosis. Particulars: for Static dose: single IP dose, 168 h. Here is the method:
Infection model. A neutropenic, murine, disseminated candidiasis model was used for the treatment studies. The mice were rendered neutropenic (polymorphonuclear cell count, <100/mm3) by injecting 150 mg/kg of cyclophosphamide (Mead Johnson Pharmaceuticals, Evansville, IN) subcutaneously 4 days before infection, 100 mg/kg of cyclophosphamide 1 day before infection, and additional cyclophosphamide doses (100 mg/kg) on Day 2 and Day 4 after infection to ensure neutropenia throughout the 168 h (7 d) study period. Three mice were included in each treatment and control group.
The organisms were subcultured on SDA plates 24 h prior to infection. The inoculum was prepared by placing 3 to 5 colonies into 5 ml of sterile pyrogen-free 0.15 M NaCl warmed to 35° C. The final inoculum was adjusted to a 0.6 transmittance at 530 nm. The fungal count of the inoculum determined by viable counts on SDA was 6.1±0.2 log10 CFU/ml.
Disseminated infection with the Candida strains was achieved by injection of 0.1 ml of the inoculum via the lateral tail vein 2 h prior to the start of antifungal therapy. At the end of the study period, the animals were sacrificed by CO2 asphyxiation. The kidneys of each mouse were aseptically removed and placed in 0.15 M NaCl at 4° C. The kidneys were homogenized and serially diluted 1:10, and the aliquots were plated onto SDA for viable fungal colony counts after incubation for 24 h at 35° C. The lower limit of detection was 100 CFU/ml. The results are expressed as the mean CFU/kidney for three mice.
Treatment efficacy and pharmacodynamic target determination of CD101. Neutropenic mice were infected with one of 10 Candida strains as described above. […] Five dose levels that varied from 0.25 to 64 mg/kg were administered once in a 0.2-ml volume by IP route for the 168 h study period. Due to enhanced effect against single isolate, additional studies at 0.0156 and 0.0625 mg/kg was examined for C. glabrata 5592. Groups of three mice were used for each dosing regimen and control group. At the end of the treatment period (168 h), the mice were euthanized, and their kidneys were immediately processed for CFU determination as described above.
Data analysis. A sigmoid dose-effect (Hill) model was used to measure the in vivo potency of CD101. The efficacy endpoints included the dose level required to produce a 24 h net static effect (no change in organism burden compared to that at the start of therapy) and the dose required to achieve a 1-log10 reduction in colony counts (relative to the burden at the start of therapy), when achieved. The maximum response (Emax) was measured as the difference in the number of CFU/kidney relative to that of the untreated control animals. The doses associated with the stasis and 1-log10 endpoint for each strain was calculated using the equation: log10 D=[log10 (E/(Emax−E))/N]+log10 ED50, where D is the drug dose, E is the control growth in untreated animals, Emax is the maximal effect, Nis the slope of the dose-response relationship, and ED50 is the dose needed to achieve 50% of the maximal effect. The associated AUC/MIC targets were then calculated for each strain. […] The calculations were performed using both total and free drug concentrations. The coefficient of determination (R^2) was used to estimate the variance that might be due to regression with the PK/PD index. Kruskal-Wallis one-way analysis of variance (ANOVA) was used to determine if the differences in PK/PD targets were significant between the species.

Setting [5] is: only two strains achieved the endpoint.

As for `CCCCCOc1ccc(-c2ccc(-c3ccc(C(=O)N[C@H]4C[C@@H](O)[C@@H](OCC[N+](C)(C)C)NC(=O)C5C(O)[C@@H](C)CN5C(=O)[C@H]([C@@H](C)O)NC(=O)[C@H]([C@H](O)[C@@H](O)c5ccc(O)cc5)NC(=O)[C@@H]5C[C@@H](O)CN5C(=O)C(C(C)O)NC4=O)cc3)cc2)cc1` (stereo partly drawn) [CD101] ({pTerphenylCO(4''-OnC5H11)}-[Orn(4R-OH,5R-OCH2CH2NMe3+)][ξT][Hyp][hTyr(3S-OH,4S-OH)]T[X1]; lactam 1-C), the 14-day survival result in data set [1] (3 mg/kg SC 1 hour after infection) is recorded as “significant increase in the 14-day survival”. Also, the “symptoms of infection (body weight, hunched posture, ruffled fur, immobility, hypothermia)” value in data set [1] (3, 10 and 30 mg/kg SC on Day −5, −3 and −1) is listed as “improved”. Besides, the “increase in the 14-day survival compared to the vehicle group” value in data set [1] (SC: 3 mg/kg Day −1, 10 mg/kg Day −5, −3, −1, 30 mg/kg Day −5, −3, −1) amounted to 50%. Moreover, the fraction unbound at 2.5 hr in data set [2] is 0.008. In addition, in data set [3] (human plasma, 7 to 60 μg/mL), the “percent of bound CD101, mean” value was found to be 97.4%. Besides, in data set [3] (human vs mouse plasma), the “higher free fraction in human vs mouse plasma” value is ~3 ×. Also, in data set [4] (20423.072), the “Stasis 24 h Ave free drug AUC/MIC” value came out at 1.39, the “Stasis free drug AUC0-168 h/MIC” value worked out at 9.74, the “Stasis total drug AUC0-168 h/MIC” value worked out at 1217.49 and the Static dose came to 9.62 mg/kg. Further, in data set [4] (20477.048), the “Stasis 24 h Ave free drug AUC/MIC” value is 3.82, the “Stasis free drug AUC0-168 h/MIC” value turned out to be 26.72, the “Stasis total drug AUC0-168 h/MIC” value amounted to 3339.42 and the Static dose worked out at 52.96 mg/kg. In data set [4] (setting [5]), the “median stasis 24 h free drug AUC/MIC target” value was 2.61 and the “median stasis free drug AUC0-168/MIC target” value was 18.2.
